{
  "source": "patent EP0262785A1",
  "about": "“N-[2-(4-carboxymethoxyphenyl)-1-methylethyl]-2-hydroxy-2-(3-chlorophenyl)ethane amine, the methyl ester, salt and stereoisomeric forms thereof” (BEECHAM GROUP PLC, priority 1986, dated 1988)",
  "key": {"Male Sprague-Dawley rats": {"test_system": "Male Sprague-Dawley rats", "test": "Effect on Energy Expenditure of Rats", "assay_type": "in vivo", "conditions": "Dose 0.2 µmol/kg p.o. in water, rats deprived of food, percentage of the rate of energy expenditure of the rats dosed with water", "experimental": "Water was provided ad lib at all times. The compounds were administered orally in water to 3 or 4 rats. A further 4 rats were dosed orally with water. The rats were placed in boxes through which air was drawn and the oxygen content of the air leaving the boxes was measured. The energy expenditure of the rats was calculated for 3 hours and for 21 hours after dosing from the volume of air leaving the boxes and its oxygen content, following the principles described by J.B. de V. Weir, J. Physiol. (London) 109, 1-9 (1949). The results are expressed as a percentage of the rate of energy expenditure of the rats dosed with water."}, "Female CFLP mice": {"test_system": "Female CFLP mice", "test": "Anti-hyperglycaemic activity (subcutaneous glucose load, blood glucose curve)", "assay_type": "in vivo", "conditions": "Dose 0.02 µmol/kg orally as aqueous solution, 6 mice fasted for 24 hours; glucose 1g/kg subcutaneously 30 minutes later; area over the 2 hour period compared with control mice given water", "experimental": "Female CFLP mice, weighing approximately 25 g, were fasted for 24 hours prior to the study. The compound under study was administered orally as an aqueous solution to each of 6 mice. 30 minutes later a blood sample (10µl) was obtained from the tail for the analysis of blood glucose. Immediately after taking this blood sample, glucose (1g/kg body weight) was administered subcutaneously to each mouse. 6 mice were given water as a control. Blood samples were then obtained from each mouse at 30 minute intervals for 120 minutes. Compounds that produce a significant (P<0.05) reduction of blood glucose, compared with control mice given water, at any time interval, are considered active. The area under the blood glucose curve over the 2 hour period after the administration of the glucose was calculated for the compound and compared with the value for control animals."}},
  "data": [
    {"smiles": "COC(=O)COc1ccc(C[C@@H](C)NC[C@H](O)c2cccc(Cl)c2)cc1", "note": "[Example 1, N-[2-(4-Carbomethoxymethoxyphenyl)-1-(R)-1-methylethyl-2-(R)-2-hydroxy-2-(3-chlorophenyl)ethananine, hemifumarate]", "values": [
      {"measurement": "Mean Energy Expenditure (0-3h)", "setting": "Male Sprague-Dawley rats; 3 hours after dosing", "value": 134, "unit": "percentage"},
      {"measurement": "Mean Energy Expenditure (0-21h)", "setting": "Male Sprague-Dawley rats; 21 hours after dosing", "value": 111, "unit": "percentage"},
      {"measurement": "% Reduction in area under Blood Glucose Curve", "setting": "Female CFLP mice", "value": 51, "unit": "%"}
    ]}
  ]
}
